# From US20110217293A1, “Uses of morelloflavone” (priority 2008, published 2011)
# “Also recorded” adds a separate entry of the source.
# System: RhoA
# Test: GTPase activation assay, RhoA
# Type: cell-based, mouse
# Conditions: 0.1 mM; low concentrations 0.1 & 1 mM
# Protocol: To assess the phosphorlyation status of ERK, […] of whole cell lysates was loaded onto SDS-PAGE, and Western blot analysis was done using anti-p-ERK (Santa Cruz; E-4; sc-7383) and anti-ERK (Santa Cruz; K-23; sc-94) antibodies. To detect active RhoA, Rac1 and Cdc42, generated GST-tagged RhoA binding domain of Rhotekin protein (GST-Rhotekin-RBD) and GST-tagged p21-binding domain of p21-activated kinase 1 (PAK1)(GST-PAK1-PBD) were first generated. Briefly, E. coli BL21 cells transformed with pGEX4T-PAK1-PBD or pGEX4T-Rh,otekin-RBD were grown at 37° C. and expression of recombinant protein was induced by addition of 0.1 mM IPTG for 3 hours. Cells were resuspended in lysis buffer (50 mM Tris-HCl, pH 8.0, 10% glycerol, 20% sucrose, 2 mM DTT, 1 mg/ml leupeptin, 1 mg/ml pepstatin, and 1 mg/ml aprotinin), sonicated, and centrifuged at 4° C. for 30 min at 45,000 g. The supernatant was incubated with glutathione sepharose 4B beads (GE-Amersham, Piscataway, N.J.) for 1 hour at 4° C., and then washed 3 times in lysis buffer. Using these GST-proteins, GTPase activation assays were performed as described. […]
structure (smiles),measurement,value
"O=C1c2c(O)cc(O)cc2O[C@H](c2ccc(O)cc2)[C@H]1c1c(O)cc(O)c2c(=O)cc(-c3ccc(O)c(O)c3)oc12 [morelloflavone, 5,7, 4′, 5″, 7″, 3″, 4″-heptahydroxy-[3,8″]-flavonylflavanone]",activation of RhoA,inhibited; also recorded: blocks the activation
